Values after ≈ are worked out from the molar mass of the structure shown.
Key:
[1] = DPPH free radical scavenging assay; conditions: antioxidant activity; average of three independent experiments
Description: The antioxidant activity of all 30 compounds was assessed using 1,1-diphenyl-2-picrylhydrazine (DPPH) free radical scavenging assay and the results are the average of three independent experiments (Table 3). Gallic acid was employed as a positive control. […] In the disubstituted series (20–25), compound 25 with substitutions at position 3 and 5 on the phenyl ring gave the highest activity of 9 µg/mL.
The purpose of this study was to evaluate the antioxidant activity of chalcones and pyrazolines using the DPPH free radical assay. The percentage of antioxidant activity (AA%) of all the compounds was assessed by the DPPH free radical assay. The measurement of the DPPH radical scavenging activity was performed according to methodology described by Brand-Williams et al. The samples were reacted with the stable DPPH radical in an ethanol solution. A 0.1 mM solution of DPPH was prepared by dissolving DPPH in methanol. Gallic acid was taken as a reference standard and different concentrations of test samples (5–100 µg/mL) and standard (1.0, 2.5, and 5.0 µg/mL) were prepared using methanol. One milliliter of 0.1 mM DPPH solution was added to 3 mL of all concentrations of test samples and standard separately. These mixtures were kept in dark for about 30 min and the absorbance was measured at 517 nm. The capability to scavenge the DPPH radical was calculated using the formula:(1) DPPH scavanged (%)= Absorbance of control−Absorbance of sample/Absorbance of control∗100 when DPPH reacted with an antioxidant compound and was reduced, the change in color (from deep violet to light yellow) was read [Absorbance (Abs)] at 517 nm after […] of reaction using a UV-VIS spectrophotometer.

[2] = test system: prostate cancer cell line, DU-145; experiment: MTT assay anticancer activity; assay type: cell-based; conditions: for IC50: Homo sapiens, MTT assay, mean ± SD (n = 3); for Anticancer potency MIC: given as MIC in text/Figure 3
Description: All the 30 compounds were evaluated for their anticancer potency against the prostate cancer cell line, DU-145, employing colorimetric tetrazolium dye (MTT) assay. […] Among the disubstituted series 20–25, substitution at position 3 and 4 (compound 24) produced the best activity but was lower than the standard. […] Similar phenomena can be seen among the dihydropyrazole series.
The in vitro anticancer activity of chalcones (17 to 31) and dihydropyrazoles (32 to 46) was evaluated by the Mosmann’s MTT assay as described previously.

Staphylococcus aureus = experiment: Antibacterial activity, serial tube dilution method; assay type: cell-based; conditions: Staphylococcus aureus; Gram-positive; serial tube dilution; read-out: MIC S aureus
Description: (§1) The target chalcones (17–31) and pyrazolines (32–46) were tested for their antimicrobial activities by serial tube dilution method against two types of bacterial and fungal strains (Table 1 and Table 2). The bacterial strains used for the testing, including Gram-positive Staphylococcus aureus and Gram-negative Pseudomonas aeruginosa, whereas the fungal strains employed were Aspergillus niger and Candida tropicalis.
(§2) The antibacterial and antifungal activity of the novel chalcones (17 to 31) and dihydropyrazoles (32 to 46) against the selected bacterial and fungal strains was assessed by following the procedure described in our previous paper.

Pseudomonas aeruginosa = experiment: as above; assay type: cell-based; conditions: Pseudomonas aeruginosa; Gram-negative; serial tube dilution; read-out: MIC P aeruginosa
Description: as §1, §2

Aspergillus niger = experiment: Antifungal activity, serial tube dilution method; assay type: cell-based
Description: as §1, §2

Candida tropicalis = experiment: Antifungal activity, serial tube dilution method; assay type: cell-based; conditions: read-out: MIC C tropicalis
Description: as §1, §2

Human Normal Cells (L02) = experiment: MTT assay toxicity on normal cells; assay type: cell-based
[3] = test system: Aspergillus niger and Candida tropicalis; experiment: Antifungal activity (strain not named); assay type: cell-based; conditions: text/figure value, strain not named
Description: as §1, §2

SMILES	DPPH assay IC50 [1]	IC50 [2]	MIC (Staphylococcus aureus)	MIC (Pseudomonas aeruginosa)	MIC (Aspergillus niger)	MIC (Candida tropicalis)	IC50 (Human Normal Cells (L02))	Anticancer potency MIC [2]	MIC [3]
COc1cc(OC)cc(C2CC(c3ccno3)=NN2C(N)=O)c1 (stereo not drawn) [Compound 40]	12 ± 1 µg/mL	8 ± 2 µg/mL (≈ 25.3 µM)	256 µg/mL (≈ 809 µM)	256 µg/mL (≈ 809 µM)	64 µg/mL (≈ 202 µM)	64 µg/mL (≈ 202 µM)	> 40 µg/mL	–	–
COc1ccc(C2CC(c3ccno3)=NN2C(N)=O)cc1OC (stereo not drawn) [Compound 39]	49 ± 1 µg/mL	4 ± 2 µg/mL (≈ 12.6 µM)	128 µg/mL (≈ 405 µM)	64 µg/mL (≈ 202 µM)	32 µg/mL (≈ 101 µM)	32 µg/mL (≈ 101 µM)	> 40 µg/mL	4 µg/mL	–
COc1cccc(C2CC(c3ccno3)=NN2C(N)=O)c1 (stereo not drawn) [Compound 33]	51 ± 2 µg/mL	18 ± 2 µg/mL (≈ 62.9 µM)	128 µg/mL (≈ 447 µM)	128 µg/mL (≈ 447 µM)	64 µg/mL (≈ 224 µM)	64 µg/mL (≈ 224 µM)	> 40 µg/mL	–	–
COc1cc(OC)c(C2CC(c3ccno3)=NN2C(N)=O)cc1OC (stereo not drawn) [Compound 42]	10 ± 2 µg/mL	18 ± 2 µg/mL (≈ 52 µM)	32 µg/mL (≈ 92.4 µM)	16 µg/mL (≈ 46.2 µM)	16 µg/mL (≈ 46.2 µM)	16 µg/mL (≈ 46.2 µM)	> 40 µg/mL	–	–
COc1cc(OC)c(OC)cc1/C=C/C(=O)c1ccno1 [Compound 27]	7 ± 2 µg/mL	26 ± 3 µg/mL (≈ 89.9 µM)	16 µg/mL (≈ 55.3 µM)	16 µg/mL (≈ 55.3 µM)	32 µg/mL (≈ 111 µM)	32 µg/mL (≈ 111 µM)	> 40 µg/mL	–	–
COc1ccc(OC)c(/C=C/C(=O)c2ccno2)c1 [Compound 22]	26 ± 2 µg/mL	38 ± 1 µg/mL (≈ 147 µM)	32 µg/mL (≈ 123 µM)	32 µg/mL (≈ 123 µM)	64 µg/mL (≈ 247 µM)	64 µg/mL (≈ 247 µM)	> 40 µg/mL	–	–
COc1ccc(/C=C/C(=O)c2ccno2)cc1 [Compound 17]	33 ± 1 µg/mL	32 ± 2 µg/mL (≈ 140 µM)	4 µg/mL (≈ 17.4 µM)	8 µg/mL (≈ 34.9 µM)	8 µg/mL (≈ 34.9 µM)	8 µg/mL (≈ 34.9 µM)	> 40 µg/mL	–	–
O=C(O)c1cn(C2CC2)c2cc(N3CCNCC3)c(F)cc2c1=O [Ciprofloxacin, reference compound]	–	–	2 µg/mL (≈ 6.04 µM)	2 µg/mL (≈ 6.04 µM)	–	–	–	–	–
COc1cc(Cl)c(/C=C/C(=O)c2ccno2)c(OC)c1 [Compound 31]	48 ± 1 µg/mL	16 ± 2 µg/mL (≈ 54.5 µM)	2 µg/mL (≈ 6.81 µM)	2 µg/mL (≈ 6.81 µM)	4 µg/mL (≈ 13.6 µM)	4 µg/mL (≈ 13.6 µM)	> 40 µg/mL	–	–
OC(Cn1cncn1)(Cn1cncn1)c1ccc(F)cc1F [Fluconazole, reference compound]	–	–	–	–	1 µg/mL (≈ 3.27 µM)	1 µg/mL (≈ 3.27 µM)	–	–	1 µg/mL (≈ 3.27 µM)
COc1ccccc1/C=C/C(=O)c1ccno1 [Compound 19]	32 ± 2 µg/mL	36 ± 1 µg/mL (≈ 157 µM)	4 µg/mL (≈ 17.4 µM)	4 µg/mL (≈ 17.4 µM)	8 µg/mL (≈ 34.9 µM)	16 µg/mL (≈ 69.8 µM)	> 40 µg/mL	–	–
COc1cccc(C2CC(c3ccno3)=NN2C(N)=O)c1OC (stereo not drawn) [Compound 35]	32 ± 1 µg/mL	16 ± 2 µg/mL (≈ 50.6 µM)	64 µg/mL (≈ 202 µM)	64 µg/mL (≈ 202 µM)	16 µg/mL (≈ 50.6 µM)	16 µg/mL (≈ 50.6 µM)	> 40 µg/mL	–	–
COc1cccc(/C=C/C(=O)c2ccno2)c1OC [Compound 20]	24 ± 1 µg/mL	22 ± 1 µg/mL (≈ 84.9 µM)	32 µg/mL (≈ 123 µM)	64 µg/mL (≈ 247 µM)	64 µg/mL (≈ 247 µM)	32 µg/mL (≈ 123 µM)	> 40 µg/mL	–	–
COc1cc(C2CC(c3ccno3)=NN2C(N)=O)cc(OC)c1OC (stereo not drawn) [Compound 44]	12 ± 2 µg/mL	5 ± 2 µg/mL (≈ 14.4 µM)	64 µg/mL (≈ 185 µM)	256 µg/mL (≈ 739 µM)	16 µg/mL (≈ 46.2 µM)	16 µg/mL (≈ 46.2 µM)	> 40 µg/mL	–	–
COc1ccc(/C=C/C(=O)c2ccno2)c(F)c1OC [Compound 30]	45 ± 2 µg/mL	5 ± 2 µg/mL (≈ 18 µM)	4 µg/mL (≈ 14.4 µM)	4 µg/mL (≈ 14.4 µM)	16 µg/mL (≈ 57.7 µM)	16 µg/mL (≈ 57.7 µM)	> 40 µg/mL	–	–
COc1ccc(/C=C/C(=O)c2ccno2)c(OC)c1 [Compound 21]	18 ± 2 µg/mL	29 ± 2 µg/mL (≈ 112 µM)	2 µg/mL (≈ 7.71 µM)	4 µg/mL (≈ 15.4 µM)	8 µg/mL (≈ 30.9 µM)	16 µg/mL (≈ 61.7 µM)	> 40 µg/mL	–	–
COc1ccc(C2CC(c3ccno3)=NN2C(N)=O)c(OC)c1 (stereo not drawn) [Compound 36]	25 ± 2 µg/mL	26 ± 2 µg/mL (≈ 82.2 µM)	8 µg/mL (≈ 25.3 µM)	8 µg/mL (≈ 25.3 µM)	4 µg/mL (≈ 12.6 µM)	8 µg/mL (≈ 25.3 µM)	> 40 µg/mL	–	–
O=C(O)c1cc(O)c(O)c(O)c1 [Gallic acid, reference compound]	Gallic acid 5 ± 1 µg/mL	–	–	–	–	–	–	–	–
COc1ccc(/C=C/C(=O)c2ccno2)cc1OC [Compound 24]	29 ± 1 µg/mL	6 ± 2 µg/mL (≈ 23.1 µM)	64 µg/mL (≈ 247 µM)	32 µg/mL (≈ 123 µM)	128 µg/mL (≈ 494 µM)	64 µg/mL (≈ 247 µM)	> 40 µg/mL	–	–
COc1cccc(OC)c1/C=C/C(=O)c1ccno1 [Compound 23]	16 ± 1 µg/mL	33 ± 2 µg/mL (≈ 127 µM)	4 µg/mL (≈ 15.4 µM)	4 µg/mL (≈ 15.4 µM)	4 µg/mL (≈ 15.4 µM)	4 µg/mL (≈ 15.4 µM)	> 40 µg/mL	–	–
CC(=O)O[C@@]12CO[C@@H]1C[C@H](O)[C@@]1(C)C(=O)[C@H](O)C3=C(C)[C@@H](OC(=O)[C@H](O)[C@@H](NC(=O)OC(C)(C)C)c4ccccc4)C[C@@](O)([C@@H](OC(=O)c4ccccc4)[C@H]21)C3(C)C [Docetaxel, reference compound]	–	5 µg/mL (≈ 6.19 µM)	–	–	–	–	–	5 µg/mL	–
COc1ccc(OC)c(C2CC(c3ccno3)=NN2C(N)=O)c1 (stereo not drawn) [Compound 37]	39 ± 2 µg/mL	31 ± 2 µg/mL (≈ 98 µM)	64 µg/mL (≈ 202 µM)	32 µg/mL (≈ 101 µM)	32 µg/mL (≈ 101 µM)	32 µg/mL (≈ 101 µM)	> 40 µg/mL	–	–
